According to ChEMBL document CHEMBL1201862, “PubChem BioAssay data set” (2004):
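1) Cells in 96-well plates. 2) Compound, 48 h, 5 concentrations. 3) Linear interpolation between surrounding doses. 4) Unreached endpoint = highest concentration. The concentration for 50% growth inhibition is given as GI50.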 Calls of active or inactive are those of the source. No stated cut-off is given here; in the data, active = GI50 up to about 1.1 µM and inactive = higher.

What was measured:
Test in all cases: inhibition of tumour cell growth, NCI panel, 48 h
HCC 2998 = tested on: HCC 2998
HCT-15 = tested on: HCT-15
OVCAR-3 = tested on: OVCAR-3
SNB-75 = tested on: SNB-75
A498 = tested on: A498
CAKI-1 = tested on: CAKI-1
SK-MEL-2 = tested on: SK-MEL-2
NCI-H460 = tested on: NCI-H460
SK-OV-3 = tested on: SK-OV-3
NCI-H522 = tested on: NCI-H522
DU-145 = tested on: DU-145
EKVX = tested on: EKVX
IGROV-1 = tested on: IGROV-1
UACC-62 = tested on: UACC-62
M14 = tested on: M14
OVCAR-5 = tested on: OVCAR-5
SR = tested on: SR
NCI-H226 = tested on: NCI-H226
SK-MEL-28 = tested on: SK-MEL-28
RPMI-8226 = tested on: RPMI-8226

Row | Structure (SMILES) | GI50 (HCC 2998) | GI50 (HCT-15) [µM] | GI50 (OVCAR-3) | GI50 (SNB-75) | GI50 (A498) | GI50 (CAKI-1) | GI50 (SK-MEL-2) | GI50 (NCI-H460) | GI50 (SK-OV-3) | GI50 (NCI-H522) | GI50 (DU-145) | GI50 (EKVX) | GI50 (IGROV-1) | GI50 (UACC-62) | GI50 (M14) | GI50 (OVCAR-5) | GI50 (SR) | GI50 (NCI-H226) | GI50 (SK-MEL-28) | GI50 (RPMI-8226)
1 | N#CCCN(C(=O)Nc1ccc(NC(=O)N(CCC#N)c2ccccc2)cc1)c1ccccc1 | > 100 µM (inactive) | > 100 | > 100 µM (inactive) | > 100 µM (inactive) | > 100 µM (inactive) | > 100 µM (inactive) | > 100 µM (inactive) | > 100 µM (inactive) | > 100 µM (inactive) | > 100 µM (inactive) | > 100 µM (inactive) | > 100 µM (inactive) | > 100 µM (inactive) | > 100 µM (inactive) | > 100 µM (inactive) | > 100 µM (inactive) | > 100 µM (inactive) | > 100 µM (inactive) | > 100 µM (inactive) | > 100 µM (inactive)
2 | CCCCCc1cc(CCCC)sc1-c1ccco1 | > 95.9 µM (inactive) | > 100 | > 74.8 µM (inactive) | > 100 µM (inactive) | > 100 µM (inactive) | > 100 µM (inactive) | > 83.9 µM (inactive) | > 100 µM (inactive) | > 100 µM (inactive) | > 100 µM (inactive) | > 100 µM (inactive) | > 87.1 µM (inactive) | > 100 µM (inactive) | > 100 µM (inactive) | 97.5 µM (inactive) | > 87.3 µM (inactive) | 44.2 µM (inactive) | > 100 µM (inactive) | > 100 µM (inactive) | 55.3 µM (inactive)
3 | COc1ccc(C(=O)/C=C/c2cc(O)c(O)c(F)c2F)c(OC)c1 | 4.75 µM (inactive) | 4.99 | 5.48 µM (inactive) | 22.4 µM (inactive) | 20.1 µM (inactive) | 25.6 µM (inactive) | 14.4 µM (inactive) | 4.45 µM (inactive) | 21.5 µM (inactive) | 11.2 µM (inactive) | 23.9 µM (inactive) | 25 µM (inactive) | 19.8 µM (inactive) | 15.1 µM (inactive) | 22.8 µM (inactive) | 35 µM (inactive) | 4.24 µM (inactive) | 21.5 µM (inactive) | 30 µM (inactive) | 8.83 µM (inactive)
4 | O=C(c1c(F)c(F)c(F)c(F)c1F)N1CCN(C(=O)c2c(F)c(F)c(F)c(F)c2F)C1=S | 9.57 µM (inactive) | 2.2 | 5.08 µM (inactive) | 11 µM (inactive) | 18.1 µM (inactive) | 2.69 µM (inactive) | 2.11 µM (inactive) | 10.7 µM (inactive) | 5.05 µM (inactive) | 0.582 µM (active) | 14 µM (inactive) | 13 µM (inactive) | 4.4 µM (inactive) | 4.5 µM (inactive) | 1.56 µM (inactive) | 15.6 µM (inactive) | 3.38 µM (inactive) | 15.4 µM (inactive) | 4.8 µM (inactive) | 2.43 µM (inactive)
5 | CCC1(CC)N=C(C(F)(F)F)c2cc(C(=O)C(F)(F)F)c3ccccc3c2N1 | 4.39 µM (inactive) | 4.22 | 2.73 µM (inactive) | 4.2 µM (inactive) | 15.6 µM (inactive) | 3.99 µM (inactive) | 2.81 µM (inactive) | 4.16 µM (inactive) | 17.7 µM (inactive) | 3.94 µM (inactive) | 3.6 µM (inactive) | 10.2 µM (inactive) | 3.76 µM (inactive) | 3.36 µM (inactive) | 4.89 µM (inactive) | 13.4 µM (inactive) | 2.98 µM (inactive) | 6.5 µM (inactive) | 8.26 µM (inactive) | 2.58 µM (inactive)
6 | Cc1ccc([N+](=O)[O-])cc1S(=O)(=O)Nc1ccc(C2=NN(S(=O)(=O)c3cc([N+](=O)[O-])ccc3C)C(c3ccccc3)C2)cc1 (stereo not given) | 22.2 µM (inactive) | 30.9 | 26 µM (inactive) | 64.6 µM (inactive) | 16.5 µM (inactive) | 35.8 µM (inactive) | 22.6 µM (inactive) | 21.6 µM (inactive) | 27.4 µM (inactive) | 15.7 µM (inactive) | 42.3 µM (inactive) | 28.8 µM (inactive) | 29.3 µM (inactive) | 16 µM (inactive) | 30.9 µM (inactive) | 51.2 µM (inactive) | 32 µM (inactive) | 54.2 µM (inactive) | 82.8 µM (inactive) | 22.3 µM (inactive)
7 | COc1cc(C2=N/C(=C/c3cccs3)C(=O)O2)cc(OC)c1OC | > 100 µM (inactive) | > 100 | > 100 µM (inactive) | > 100 µM (inactive) | > 100 µM (inactive) | > 100 µM (inactive) | > 100 µM (inactive) | > 100 µM (inactive) | > 100 µM (inactive) | > 100 µM (inactive) | > 100 µM (inactive) | > 100 µM (inactive) | > 100 µM (inactive) | > 100 µM (inactive) | > 100 µM (inactive) | > 100 µM (inactive) | > 100 µM (inactive) | > 100 µM (inactive) | > 100 µM (inactive) | > 100 µM (inactive)
8 | N#C/C(N)=C(C#N)/N=C/Nc1ccccc1N | > 100 µM (inactive) | > 100 | > 100 µM (inactive) | > 100 µM (inactive) | > 100 µM (inactive) | > 100 µM (inactive) | > 100 µM (inactive) | > 100 µM (inactive) | > 100 µM (inactive) | > 100 µM (inactive) | > 100 µM (inactive) | > 100 µM (inactive) | > 100 µM (inactive) | > 100 µM (inactive) | > 100 µM (inactive) | > 100 µM (inactive) | > 100 µM (inactive) | > 100 µM (inactive) | > 100 µM (inactive) | > 100 µM (inactive)
9 | COc1ccc(C(=O)O[C@H]2CC[C@@]3(C)[C@@H]4CC[C@H]5[C@]6(O)C[C@H](O)[C@@]7(O)[C@@H](CN8C[C@@H](C)CC[C@H]8[C@@]7(C)O)[C@]6(O)C[C@@]53OC24O)cc1OC [VERATRIDINE] | 46.1 µM (inactive) | > 100 | > 100 µM (inactive) | 23.4 µM (inactive) | > 100 µM (inactive) | > 100 µM (inactive) | > 100 µM (inactive) | 75.2 µM (inactive) | > 100 µM (inactive) | > 100 µM (inactive) | > 100 µM (inactive) | > 100 µM (inactive) | > 100 µM (inactive) | > 100 µM (inactive) | > 100 µM (inactive) | > 100 µM (inactive) | 74.8 µM (inactive) | 44.3 µM (inactive) | > 100 µM (inactive) | 80.4 µM (inactive)
10 | Cc1oc(N)c(S(=O)(=O)/C(C#N)=C/c2ccccc2[N+](=O)[O-])c1C | 32.1 µM (inactive) | 26.5 | 21.4 µM (inactive) | 33.2 µM (inactive) | 85.5 µM (inactive) | 22.6 µM (inactive) | 37.2 µM (inactive) | 31.1 µM (inactive) | > 100 µM (inactive) | 19.1 µM (inactive) | 62.4 µM (inactive) | 33.7 µM (inactive) | 24.9 µM (inactive) | 20.7 µM (inactive) | 18.5 µM (inactive) | 20.6 µM (inactive) | 14 µM (inactive) | 58.3 µM (inactive) | 24.2 µM (inactive) | 27.9 µM (inactive)
